One test has as its target T1, rat B1R (Rattus norvegicus, UniProt P97583).
T1 construct: expressed in transfected cells; host or cells: CHO K1 cells
T1 sequence (P97583 1-337): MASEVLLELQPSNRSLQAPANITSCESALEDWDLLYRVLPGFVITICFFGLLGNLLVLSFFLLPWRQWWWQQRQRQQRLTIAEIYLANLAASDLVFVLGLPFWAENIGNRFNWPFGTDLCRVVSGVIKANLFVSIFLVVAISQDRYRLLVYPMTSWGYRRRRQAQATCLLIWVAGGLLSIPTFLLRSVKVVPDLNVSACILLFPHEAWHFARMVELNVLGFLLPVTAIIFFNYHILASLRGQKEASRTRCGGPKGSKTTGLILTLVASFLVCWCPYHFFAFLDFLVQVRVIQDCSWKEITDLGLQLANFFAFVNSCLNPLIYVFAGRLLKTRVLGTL
The test can be described thus: FLIPR Ca2+ functional study on bradykinin receptor 1 (rB1R CHO K1 cells). The class given is cell-based. Conditions: % inhibition rat B1R at 10 μM. How it is done:
The agonistic or antagonistic activity of substances can be quantified on the bradykinin receptor 1 (B1R) of the species human and rat using ectopically expressing cell lines (CHO K1 cells) and with the aid of a Ca^2+-sensitive dye (Fluo-4) using a fluorescent imaging plate reader (FLIPR). The indication in % activation is based on the Ca^2+ signal after addition of Lys-Des-Arg^9-bradykinin (0.5 nM) or Des-Arg^9-bradykinin (100 nM). Antagonists lead to suppression of the Ca^2+ influx after the addition of the agonist. % Inhibition compared with the maximum achievable inhibition is indicated.
The agonistic or antagonistic activity of substances can be determined on the bradykinin receptor 1 (B1R) of the species human and rat using the following assay. According to this assay, the Ca^2+ influx through the channel is quantified with the aid of a Ca^2+-sensitive dye (Fluo-4 type, Molecular Probes Europe BV, Leiden, Netherlands) using a Fluorescent Imaging Plate Reader (FLIPR, Molecular Devices, Sunnyvale, USA).
Chinese hamster ovary cells (CHO K1 cells) which have been stably transfected with the human B1R gene (hB1R cells) or with the B1R gene of the rat (rB1R cells) are used. For functional studies, the cells are plated out on black 96-well plates having a clear base (BD Biosciences, Heidelberg, Germany or Greiner, Frickenhausen, Germany) in a density of 20,000-35,000 cells/well. The cells are left overnight at 37° C. and with 5% CO2 in culture medium (hB1R cells: Nutrient Mixture Ham's F12, Gibco Invitrogen GmbH, Karlsruhe, Germany or DMEM, Sigma-Aldrich, Taufkirchen, Germany; rB1R cells: D-MEM/F12, Gibco Invitrogen GmbH, Karlsruhe, Germany), with 10 vol.% FBS (fetal bovine serum, Gibco Invitrogen GmbH, Karlsruhe, Germany or PAN Biotech GmbH, Aidenbach, Germany). On the following day, the cells are loaded for 60 minutes at 37° C. with 2.13 μM Fluo-4 (Molecular Probes Europe BV, Leiden, Netherlands) in HBSS buffer (Hank's buffered saline solution, Gibco Invitrogen GmbH, Karlsruhe, Germany) […] (Sigma-Aldrich, Taufkirchen, Germany) and 10 mM HEPES (Sigma-Aldrich, Taufkirchen, Germany). The plates are then washed twice with HBSS buffer, and HBSS buffer additionally containing 0.1% BSA (bovine serum albumin; Sigma-Aldrich, Taufkirchen, Germany), 5.6 mM glucose and 0.05% gelatin (Merck KGaA, Darmstadt, Germany) is added to the plates. After incubation for a further 20 minutes at room temperature, the plates are inserted into the FLIPR for Ca^2+ measurement. Alternatively, washing is carried out with buffer A (15 mM HEPES, 80 mM NaCl, 5 mM KCl, 1.2 mM CaCl2, 0.7 mM MgSO4, 2 g/l glucose, 2.5 mM probenecid) followed by loading with buffer A with added 2.5 μM Fluo-4 and 0.025% Pluronic F127 (Sigma-Aldrich, Taufkirchen, Germany). The cells are then washed twice with buffer A and incubated for 30 minutes at room temperature with buffer A additionally containing 0.05% BSA and 0.05% gelatin and are then inserted into the FLIPR for Ca^2+ measurement. The Ca^2+-dependent fluorescence is measured before and after the addition of substances (λex=488 nm, λem=540 nm). Quantification is carried out by measuring the highest fluorescence intensity (FC, fluorescence counts) over time.
The FLIPR protocol consists of two substance additions. Test substances (10 μM) are first pipetted onto the cells and the Ca^2+ influx is compared with the control (hB1R: Lys-Des-Arg^9-bradykinin>=50 nM; rB1R: Des-Arg^9-bradykinin 10 μM). This gives the activation in %, based on the Ca^2+ signal after addition of Lys-Des-Arg^9-bradykinin (>=50 nM) or Des-Arg^9-bradykinin (10 μM). After 10-20 minutes' incubation, Lys-Des-Arg^9-bradykinin (hB1R) or Des-Arg^9-bradykinin (rB1R) is applied in the concentration of the EC80, and the influx of Ca^2+ is likewise determined. Antagonists lead to suppression of the Ca^2+ influx. The % inhibition compared with the maximum achievable inhibition is calculated. […]
As for “4-[[1-[(4-methoxy-2,6-dimethyl-phenyl)sulfonyl]-piperidin-2-yl]-methoxy]-2-(4-pyrazin-2-yloxy-piperidin-1-yl)-pyrimidine [H_CC-080]”, the “% inh. (rat B1R) 10 μM” value was found to be 59%. Turning to `COc1cc(C)c(S(=O)(=O)N(C)CCOc2nccc(N3CCN(CC4CCN(C)CC4)CC3)n2)c(C)c1` [G_CC-007, 4-methoxy-N,2,6-trimethyl-N-[2-[[4-[4-[(1-methyl-4-piperidinyl)methyl]-1-piperazin]-2-pyrimidinyl]oxy]ethyl]benzenesulfonamide], the “% inh. (rat B1R) 10 μM” value amounted to 95%. Take `COc1cc(C)c(S(=O)(=O)N2CCCC(Oc3nccc(N4CCC(CCN5CCCCC5)CC4)n3)C2)c(C)c1` (centres unmarked) [G_CC-027]: the “% inh. (rat B1R) 10 μM” value came to 63%.

Staying with this test, now noted: CHO-K1, % inhibition rat B1R at 10 μM, read-out: % inh. (rat B1R) 10 μM.
Regarding `O=S(=O)(c1cccc(C(F)(F)F)c1)N(CCCc1ccnc(N2CCC3(CCN(c4ccncc4)CC3)CC2)n1)C1CC1` [Example I-008, N-cyclopropyl-N-[3-[2-(9-pyridin-4-yl-3,9-diazaspiro[5.5]undecan-3-yl)-pyrimidin-4-yl]-propyl]-3-(trifluoromethyl)-benzenesulfonic acid amide], the inhibition at 10 µM is 94%. Regarding `COc1cc(C)c(S(=O)(=O)N(C)CCOc2nccc(N3CCN(c4ccc(F)cc4)CC3)n2)c(C)c1` [G_CC-005, N-[2-[[4-[4-(4-fluorophenyl)-1-piperazinyl]-2-pyrimidinyl]oxy]ethyl]-4-methoxy-N,2,6-trimethylbenzenesulfonamide], the inhibition at 10 µM is 81%. Same read-out and setting: the figure for `COc1cc(C)c(S(=O)(=O)N(C)CCOc2nccc(N3CCC(N4CCN(C)CC4)CC3)n2)c(C)c1` [G_CC-006, 4-methoxy-N,2,6-trimethyl-N-[2-[[4-[4-(4-methyl-1-piperazinyl)-1-piperidinyl]-2-pyrimidinyl]oxy]ethyl]benzenesulfonamide] is 97%; for `COc1cc(C)c(S(=O)(=O)N(C)CCOc2nccc(N3CCC(O)(c4cccnc4)CC3)n2)c(C)c1` [G_CC-008, N-[2-[[4-[4-hydroxy-4-(3-pyridyl)-1-piperidinyl]-2-pyrimidinyl]oxy]ethyl]-4-methoxy-N,2,6-trimethylbenzenesulfonamide] it is 59%.

`COc1cc(C)c(S(=O)(=O)N2CCCCC2COc2nccc(N3CCN(C)CC3)n2)c(C)c1` (centres unmarked) [G_CC-009, 2-[[1-(4-methoxy-2,6-dimethylphenyl)sulfonyl-2-piperidinyl]methoxy]-4-(4-methyl-1-piperazinyl)pyrimidine]: the inhibition at 10 µM was 63%. For the compound `COc1cc(C)c(S(=O)(=O)N2CCCCC2COc2nccc(N3CCN(c4ccc(F)cc4)CC3)n2)c(C)c1` (centres unmarked) [G_CC-010, 4-[4-(4-fluorophenyl)-1-piperazinyl]-2-[[1-(4-methoxy-2,6-dimethylphenyl)sulfonyl-2-piperidinyl]methoxy]pyrimidine], the inhibition at 10 µM was determined as 70%.

As to `COc1cc(C)c(S(=O)(=O)N2CCCCC2COc2nccc(N3CCN(c4ncccn4)CC3)n2)c(C)c1` (centres unmarked) [G_CC-012, 2-[[1-(4-methoxy-2,6-dimethylphenyl)sulfonyl-2-piperidinyl]methoxy]-4-[4-(2-pyrimidinyl)-1-piperazinyl]pyrimidine], the inhibition at 10 µM is 76%. `COc1cc(C)c(S(=O)(=O)N2CCC[C@H]2COc2nccc(N3CCN(C)CC3)n2)c(C)c1` [G_CC-015, 2-[[(2S)-1-(4-methoxy-2,6-dimethylphenyl)sulfonyl-2-pyrrolidinyl]methoxy]-4-(4-methyl-1-piperazinyl)pyrimidine]: the inhibition at 10 µM turned out to be 83%. Still for that read-out and setting: the figure for `COc1cc(C)c(S(=O)(=O)N2CCC[C@H]2COc2nccc(N3CCC(N4CCN(C)CC4)CC3)n2)c(C)c1` [G_CC-017, 2-[[(2S)-1-(4-methoxy-2,6-dimethylphenyl)sulfonyl-2-pyrrolidinyl]methoxy]-4-[4-(4-methyl-1-piperazinyl)-1-piperidinyl]pyrimidine] is 98%; for `COc1cc(C)c(S(=O)(=O)N2CCC[C@H]2COc2nccc(N3CCN(c4ncccn4)CC3)n2)c(C)c1` [G_CC-018, 2-[[(2S)-1-(4-methoxy-2,6-dimethylphenyl)sulfonyl-2-pyrrolidinyl]methoxy]-4-[4-(2-pyrimidinyl)-1-piperazinyl]pyrimidine] it is 97%; for `COc1cc(C)c(S(=O)(=O)N2CCC[C@H]2COc2nccc(N3CCC(O)(c4cccnc4)CC3)n2)c(C)c1` [G_CC-020, 1-[2-[[(2S)-1-(4-methoxy-2,6-dimethylphenyl)sulfonyl-2-pyrrolidinyl]methoxy]-4-pyrimidinyl]-4-(3-pyridyl)-4-piperidinol] it is 102%. In the case of `COc1cc(C)c(S(=O)(=O)N2CCCCC2COc2nccc(N3CCC4(CCN(Cc5ccccc5)C4)C3)n2)c(C)c1` (centres unmarked) [G_CC-022, 3-benzyl-7-[2-[[1-(4-methoxy-2,6-dimethylphenyl)sulfonyl-2-piperidinyl]methoxy]-4-pyrimidinyl]-3,7-diazaspiro[4.4]nonane], the inhibition at 10 µM is 104%. On the same count and under the same terms, the figure for `COc1cc(C)c(S(=O)(=O)N2CCCCC2COc2nccc(N3CCC4(CC3)OCc3ccccc34)n2)c(C)c1` (centres unmarked) [G_CC-023, 1′-[2-[[1-(4-methoxy-2,6-dimethylphenyl)sulfonyl-2-piperidinyl]methoxy]-4-pyrimidinyl]spiro[1H-isobenzofuran-3,4′-piperidine]] is 50%; for `COc1cc(C)c(S(=O)(=O)N2CCCCC2COc2nccc(N3CCC(n4c(=O)[nH]c5cc(Cl)ccc54)CC3)n2)c(C)c1` (centres unmarked) [G_CC-024, 6-chloro-3-[1-[2-[[1-(4-methoxy-2,6-dimethylphenyl)sulfonyl-2-piperidinyl]methoxy]-4-pyrimidinyl]-4-piperidinyl]-1H-benzimidazol-2-one] it is 73%.

As to `COc1cc(C)c(S(=O)(=O)N2CCCCC2COc2nccc(N3CCC4(CC3)C(=O)NCN4c3ccccc3)n2)c(C)c1` (centres unmarked) [G_CC-025, 8-[2-[[1-(4-methoxy-2,6-dimethylphenyl)sulfonyl-2-piperidinyl]methoxy]-4-pyrimidinyl]-4-phenyl-2,4,8-triazaspiro[4.5]decan-1-one], the inhibition at 10 µM came out at 95%.

Turning to `COc1cc(C)c(S(=O)(=O)N(C)CCOc2nccc(N3CCC4(CCN(Cc5ccccc5)C4)C3)n2)c(C)c1` (centres unmarked) [G_CC-028, N-[2-[[4-(3-benzyl-3,7-diazaspiro[4.4]nonan-7-yl)-2-pyrimidinyl]oxy]ethyl]-4-methoxy-N,2,6-trimethylbenzenesulfonamide], the inhibition at 10 µM turned out to be 104%. On the same count and under the same terms, the figure for `COc1cc(C)c(S(=O)(=O)N(C)CCOc2nccc(N3CCC4(CC3)OCc3ccccc34)n2)c(C)c1` [G_CC-029, 4-methoxy-N,2,6-trimethyl-N-[2-[[4-(1′-spiro[1H-isobenzofuran-3,4′-piperidin]yl)-2-pyrimidinyl]oxy]ethyl]benzenesulfonamide] is 52%.

Values taken from patent publication US8269000B2, “Substituted pyrimidine and triazine compounds” (Gruenenthal GmbH, priority 2008, dated 2012).
